Source: paper PMC7354613 (Viruses, 2020)
Like-named read-outs stand apart in the source and are kept apart here.

Tests used:
[1] = tested on: OM-10.1 cells latently infected with HIV-1; experiment: Gag p24 immunoblot with densitometry, OM-10.1 cells; assay type: cell-based; details: 48 h
[2] = tested on: OM-10.1 cells latently infected with HIV-1; experiment: Envelope gp120 expression by flow cytometry, OM-10.1 cells; assay type: cell-based; details: live cells
[3] = tested on: OM-10.1 cells latently infected with HIV-1; experiment: HIV RNA by real-time qRT-PCR, OM-10.1 cells; assay type: cell-based; details: 48 h
[4] = Cytotoxicity, CellTiter-Blue, OM-10.1 cells; assay type: cell-based; details: human, 48 h treatment, mean ± SD, n = 3
[5] = Cytotoxicity, CellTiter-Blue, J-Lat A2 cells; assay type: cell-based; details: human, 48 h treatment, mean ± SD, n = 3
[6] = tested on: total CD4+ T-cells; experiment: CD4 and CD3 surface expression by flow cytometry; assay type: cell-based, human; details: 24 h, 0.5 µM PKCa, 0.3 µM HDACi, untreated about 97%
[7] = tested on: J-Lat A2 cells; experiment: HIV reactivation, GFP expression by flow cytometry, J-Lat A2 cells; assay type: cell-based, HIV-1; details: Human immunodeficiency virus 1, J-Lat A2, 48 h, read-out: EC50 HIV activation J-Lat A2
[8] = Cytotoxicity, CellTiter-Blue, U1 cells; assay type: cell-based; details: human, 48 h treatment, mean ± SD, n = 3
[9] = tested on: OM-10.1 cells latently infected with HIV-1; experiment: HIV activation dose response, Gag p24 ELISA of supernatant, OM-10.1 cells; assay type: cell-based; details: Human immunodeficiency virus 1, 48 h, read-out: EC50 HIV activation OM-10.1
[10] = tested on: OM-10.1, U1, ACH-2, J-Lat 10.6 and J-Lat A2 cells; assay type: cell-based, HIV-1; details: read-out: EC50 HIV activation
[11] = Cytotoxicity, CellTiter-Blue, ACH-2 cells; assay type: cell-based; details: human; 48 h treatment; mean ± SD, n = 3
[12] = tested on: J-Lat 10.6 cells; experiment: HIV reactivation, GFP expression by flow cytometry, J-Lat 10.6 cells; assay type: cell-based, HIV-1; details: for EC50: Human immunodeficiency virus 1, J-Lat 10.6, 48 h, read-out: EC50 HIV activation J-Lat 10.6; for GFP expression with respect to the PMA control set to 100: J-Lat 10.6, 48 h, 0.5 µM PKCa, 0.3 µM HDACi
[13] = tested on: U1 cells latently infected with HIV-1; experiment: HIV reactivation, Gag p24 ELISA of supernatant, U1 cells; assay type: cell-based; details: Human immunodeficiency virus 1, 48 h, read-out: EC50 HIV activation U1
[14] = tested on: ACH-2 cells latently infected with HIV-1; experiment: HIV reactivation, Gag p24 ELISA of supernatant, ACH-2 cells; assay type: cell-based; details: Human immunodeficiency virus 1, ACH-2, 48 h, read-out: EC50 HIV activation ACH-2
[15] = Cytotoxicity, CellTiter-Blue, J-Lat 10.6 cells; assay type: cell-based; details: human, 48 h treatment, mean ± SD, n = 3
[16] = tested on: ACH-2 cells latently infected with HIV-1; experiment: Envelope gp120 expression by flow cytometry, ACH-2 cells; assay type: cell-based; details: live cells
[17] = Human immunodeficiency virus 1, range over all the cell lines tested, 48 h

Row | Compound | CC50 at 48 h [5] [nM] | cells expressing CD4 (CD4 expression, R1) [6] | EC50 [7] [nM] | CC50 at 48 h [8] [µM] | EC50 [9] [nM] | EC50 [12] [nM] | EC50 [13] [nM] | EC50 [14] [nM] | CC50 at 48 h [15] [nM] | EC50 [10, 17] [nM] | CC50 [11] [nM] | CC50 [4] [nM] | GFP expression with respect to the PMA control set to 100 [12] [%] | also measured
1 | TNFα | – | – | – | – | – | – | – | – | – | – | – | – | – | cell-associated Gag p24, fold compared to treatment with PMA ([1]; immunoblot densitometry): 12–30 fold; extracellular p24, fold with respect to PMA-treated control ([1]; viral lysate immunoblot): 1.5 fold; cells expressing gp120 ([2]; 24 h): 70%; cells expressing gp120 ([2]; 48 h): 42%; HIV-1 RNA expression, fold with respect to the untreated control ([3]; cell-associated RNA): 300 fold; HIV-1 RNA expression, fold with respect to the PMA-treated control ([3]; cell-associated RNA, 0.5 µM PKCa, 0.3 µM HDACi): about 30 fold; extracellular viral RNA, fold with respect to PMA-treated control ([3]; culture supernatant): 1.5 fold
2 | CC(C)C1C(=O)NC(CO)Cc2c[nH]c3cccc(c23)N1C (single isomer, unassigned; (-)) [(-)-Indolactam V] | > 8000 | 5.5% | 320 ± 50 | > 8 | 90 ± 20 | 200 ± 40 | 120 ± 20 | 180 ± 30 | > 8000 | – | – | – | – | CC50 at 48 h [4]: > 8000 nM; EC50 ([10]; Human immunodeficiency virus 1, 48 h): 90 to 320 nM; CC50 at 48 h [11]: > 8 µM
3 | O=C(/C=C/c1cccc(S(=O)(=O)Nc2ccccc2)c1)NO [Belinostat] | 1400 ± 20 | – | 940 ± 50 | > 8 | 880 ± 400 | 940 ± 30 | 770 ± 10 | 440 ± 30 | 1400 ± 60 | 440 to 940 | 1100 ± 200 | – | – | CC50 at 48 h ([4]; OM-10.1 cells): 2700 ± 200 nM
4 | CN(C)Cc1c(C(=O)NCCOc2ccc(C(=O)NO)cc2)oc2ccccc12 [PCI-24781] | 540 ± 30 | – | 380 ± 50 | ~8 | 350 ± 40 | 450 ± 20 | 460 ± 30 | 370 ± 40 | 400 ± 20 | – | 310 ± 20 | 400 ± 20 | 6.5 | –
5 | CC(C)[C@H](C(=O)Nc1ccc(C(=O)NO)cc1)c1ccccc1 [AR-42] | 530 ± 50 | – | 440 ± 50 | ~8 | 530 ± 80 | 550 ± 20 | 260 ± 100 | 240 ± 40 | 450 ± 20 | 240 to 550 | 410 ± 10 | – | 10.2 | CC50 at 48 h ([4]; OM-10.1 cells): 400 ± 10 nM
6 | CC(=O)O[C@@]12C[C@@H](C)[C@@]3(O)[C@@H](C=C(CO)C[C@]4(O)C(=O)C(C)=C[C@@H]34)[C@@H]1C2(C)C [Prostratin] | > 8000 | about 53% | 870 ± 30 | > 8 | 410 ± 30 | 680 ± 10 | 300 ± 30 | 310 ± 70 | > 8000 | 300 to 870 | > 8000 | > 8000 | 37 | –
7 | CCCCCCCCCCCCCC(=O)O[C@@H]1[C@@H](C)[C@@]2(O)[C@@H](C=C(CO)C[C@]3(O)C(=O)C(C)=C[C@@H]23)[C@@H]2C(C)(C)[C@]12OC(C)=O [PMA, phorbol 12-myristate 13-acetate] | – | – | – | – | – | – | – | – | – | – | – | – | – | cells expressing gp120 ([2]; 24 h): 50%; cells expressing gp120 ([2]; 48 h): 24%; cells expressing gp120 ([16]; 24 h): 46%; cells expressing gp120 ([16]; 48 h): 43%; HIV-1 RNA expression, fold with respect to the untreated control ([3]; cell-associated RNA): about 10 fold
8 | CCN(CC)Cc1ccc2cc(COC(=O)Nc3ccc(C(=O)NO)cc3)ccc2c1 [Givinostat] | 1200 ± 20 | – | 700 ± 50 | ~4 | 450 ± 130 | 880 ± 40 | 630 ± 20 | 320 ± 40 | 930 ± 40 | – | 630 ± 30 | 420 ± 10 | 2.9 | –
9 | CC(C)[C@H]1C(=O)N[C@H](CO)Cc2cc(NC(=O)/C=C/C=C/c3ccc(C(F)(F)F)cc3)ccc2N1C [TPPB] | > 8000 | 18% | 490 ± 30 | > 8 | 130 ± 10 | 510 ± 80 | 210 ± 10 | 70 ± 10 | > 8000 | – | > 8000 | > 8000 | – | –
